Experimental data: the NIST ThermoML archive (doi:10.1016/j.jct.2013.12.009)

Tests used:
[1] = for surface tension liquid-gas: Pendant drop shape; for mass density / speed of sound / kinematic viscosity: Liquid; for mass density: Vibrating tube method; for speed of sound: Sing-around technique in a fixed-path interferometer; for kinematic viscosity: Capillary tube (Ostwald / Ubbelohde) method
[2] = xn = mol fraction of the nth substance listed; settings: x2 = 0; for surface tension liquid-gas: Pendant drop shape; for mass density: 101 kPa, Liquid, Vibrating tube method

CC#N [acetonitrile]
[1]
Settings	surface tension liquid-gas [mN/m]
288.15 K	29.53
298.15 K	28.34
308.15 K	27.15

[1], 101 kPa
Settings	mass density [kg/m3]
288.15 K	787.2
298.15 K	776.53
308.15 K	765.7

CCCC[N+]1(C)CCCC1.O=S(=O)([N-]S(=O)(=O)C(F)(F)F)C(F)(F)F
[1], 101.33 kPa
Settings	kinematic viscosity [m2/s]	mass density [kg/m3]	speed of sound [m/s]
288.02 K	–	–	1293.9
288.15 K	8.9e-05	1403.37	–
293.01 K	–	–	1281.8
293.15 K	6.96e-05	1398.92	–
298.01 K	–	–	1270
298.15 K	5.57e-05	1394.49	–
303.15 K	4.52e-05	1390.09	–
303.2 K	–	–	1258
308.14 K	–	–	1246.8
308.15 K	3.69e-05	1385.66	–
313.15 K	3.06e-05	1381.29	1235.7
318.12 K	–	–	1224.7
318.15 K	2.55e-05	1376.92	–
323.13 K	–	–	1213.8
323.15 K	2.15e-05	1372.54	–

[1]
Settings	surface tension liquid-gas [mN/m]
288.15 K	33.71
293.15 K	33.44
298.15 K	33.22
303.15 K	33.02
308.15 K	32.82
313.15 K	32.6
318.15 K	32.35
323.15 K	32.15

CC#N [acetonitrile] + CCCC[N+]1(C)CCCC1.O=S(=O)([N-]S(=O)(=O)C(F)(F)F)C(F)(F)F
[2]
Settings	mass density [kg/m3]	surface tension liquid-gas [mN/m]
288.15 K	787.2	29.53
298.15 K	776.5	28.34
308.15 K	765.7	27.15

CCC[N+]1(C)CCCC1.O=S(=O)([N-]S(=O)(=O)C(F)(F)F)C(F)(F)F
[1], 101.33 kPa
Settings	kinematic viscosity [m2/s]	mass density [kg/m3]	speed of sound [m/s]
288.01 K	–	–	1294.4
288.15 K	6.82e-05	1436.86	–
293.01 K	–	–	1282.8
293.15 K	5.33e-05	1432.36	–
297.99 K	–	–	1271.3
298.15 K	4.26e-05	1427.83	–
303.15 K	3.48e-05	1423.32	–
303.24 K	–	–	1259.5
308.15 K	2.88e-05	1418.81	–
308.21 K	–	–	1248.6
313.15 K	2.42e-05	1414.3	–
313.2 K	–	–	1237.6
318.15 K	2.06e-05	1409.86	–
318.16 K	–	–	1226.9
323.15 K	1.76e-05	1405.41	–
323.21 K	–	–	1216.2

[1]
Settings	surface tension liquid-gas [mN/m]
288.15 K	35.04
293.15 K	34.87
298.15 K	34.61
303.15 K	34.37
308.15 K	34.14
313.15 K	33.94
318.15 K	33.72
323.15 K	33.48

CO [methanol] + CCCC[N+]1(C)CCCC1.O=S(=O)([N-]S(=O)(=O)C(F)(F)F)C(F)(F)F
[2]
Settings	mass density [kg/m3]	surface tension liquid-gas [mN/m]
288.15 K	795.8	22.88
298.15 K	786.4	22
308.15 K	777	21.01
